Laboratory results published in patent US20090170898A1, “Sulphonamide Derivatives as Modulators of the Glucocorticoid Receptor” (priority 2006, published 2009).

molecular target: T1, recombinant human GR (Homo sapiens, UniProt P04150); experiment: Human Glucocorticoid Receptor (GR) fluorescence polarization binding assay (GRhuFL_FP_v2); conditions: GS Red tracer, 2 hours at room temperature, 100% control 10 μM Dexamethasone, read-out: GRhuFL_FP_v2 (GR-binders) IC50
T1 construct: purchased Panvera/Invitrogen P2812 (kit P2893)
T1 sequence (P04150 1-777): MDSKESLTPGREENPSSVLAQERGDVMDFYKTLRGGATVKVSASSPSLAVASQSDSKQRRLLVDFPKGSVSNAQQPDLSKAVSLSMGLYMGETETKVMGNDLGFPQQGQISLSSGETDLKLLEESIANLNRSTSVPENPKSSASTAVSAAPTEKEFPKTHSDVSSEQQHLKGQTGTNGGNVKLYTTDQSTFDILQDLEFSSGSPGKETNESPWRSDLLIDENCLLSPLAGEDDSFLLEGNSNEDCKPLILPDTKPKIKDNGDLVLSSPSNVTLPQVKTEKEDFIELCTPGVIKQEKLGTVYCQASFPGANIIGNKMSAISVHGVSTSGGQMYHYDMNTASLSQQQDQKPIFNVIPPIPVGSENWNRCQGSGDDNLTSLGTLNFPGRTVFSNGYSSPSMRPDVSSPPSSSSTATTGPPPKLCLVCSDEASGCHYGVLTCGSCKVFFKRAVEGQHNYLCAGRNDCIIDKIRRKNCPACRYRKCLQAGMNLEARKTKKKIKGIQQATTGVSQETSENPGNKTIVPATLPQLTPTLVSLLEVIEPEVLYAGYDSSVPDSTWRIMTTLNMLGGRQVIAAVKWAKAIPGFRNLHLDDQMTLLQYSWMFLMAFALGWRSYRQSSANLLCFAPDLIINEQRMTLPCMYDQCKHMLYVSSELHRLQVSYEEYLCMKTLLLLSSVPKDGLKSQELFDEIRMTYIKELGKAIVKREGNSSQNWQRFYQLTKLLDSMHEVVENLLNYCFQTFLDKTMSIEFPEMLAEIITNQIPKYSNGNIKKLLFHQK
Description: Human Glucocorticoid Receptor (GR) Assay
The assay is based on a commercial kit from Panvera/Invitrogen (Part number P2893). The assay technology is fluorescence polarization. […] The GR and Stabilizing Peptide reagents are stored at −70° C. while the GS Red is stored at −20° C. Also included in the kit are 1M DTT (Panvera, Part number P2325, stored at −20° C.) and GR Screening buffer 10× (Panvera, Part number P2814, stored at −70° C. initially but once thawed stored at room temperature). Avoid repeated freeze/thaws for all reagents. The GR Screening buffer 10× comprises 100 mM potassium phosphate, 200 mM sodium molybdate, 1 mM EDTA and 20% DMSO.
0% control was 100% DMSO and 100% control was 10 μM Dexamethasone. Background solution (8 μL; assay buffer 10×, Stabilizing Peptide, DTT and ice cold MQ water) was added to the background wells. GS Red solution (7 μL; assay buffer 10×, Stabilizing Peptide, DTT, GS Red and ice cold water) was added to all wells except background wells. GR solution (7 μL; assay buffer 10×, Stabilizing Peptide, DTT, GR and ice cold water) was added to all wells. The plate was sealed and incubated in a dark at room temperature for 2 hours.

SMILES	IC50 [nM]
Cc1cc(C)c(S(=O)(=O)N[C@H]2CCN(c3cccc4ncccc34)C2)c(C)c1 [Example 1, 2,4,6-Trimethyl-N-[(3S)-1-quinolin-5-ylpyrrolidin-3-yl]benzenesulfonamide]	48
O=S(=O)(N[C@H]1CCN(c2cccc3ncccc23)C1)c1c(Cl)cc(Cl)cc1Cl [Example 2, 2,4,6-Trichloro-N-[(3S)-1-quinolin-5-ylpyrrolidin-3-yl]benzenesulfonamide]	17
O=S(=O)(N[C@H]1CCN(c2cccc3c2cnn3-c2ccc(F)nc2)C1)c1c(Cl)cc(Cl)cc1Cl [Example 3, 2,4,6-Trichloro-N-[(3S)-1-[1-(6-fluoropyridin-3-yl)-1H-indazol-4-yl]pyrrolidin-3-yl]benzenesulfonamide]	19
O=S(=O)(N[C@H]1CCN(c2cccc3c2cnn3-c2ccc(F)cc2)C1)c1c(Cl)cc(Cl)cc1Cl [Example 4, 2,4,6-Trichloro-N-{(3S)-1-[1-(4-fluorophenyl)-1H-indazol-4-yl]pyrrolidin-3-yl}benzenesulfonamide]	25
Cc1cc(Cl)cc(Cl)c1S(=O)(=O)N[C@H]1CCN(c2cccc3c2cnn3-c2ccc(F)nc2)C1 [Example 5, 2,4-Dichloro-N-{(3S)-1-[1-(6-fluoropyridin-3-yl)-1H-indazol-4-yl]pyrrolidin-3-yl}-6-methylbenzenesulfonamide]	25
Cc1cc(Cl)cc(Cl)c1S(=O)(=O)N[C@H]1CCN(c2cccc3ncccc23)C1 [Example 6, 2,4-Dichloro-6-methyl-N-[(3S)-1-quinolin-5-ylpyrrolidin-3-yl]benzenesulfonamide]	26
Cc1cc(C)c(S(=O)(=O)N[C@H]2CCN(c3cccc4c3cnn4-c3ccc(F)nc3)C2)c(C)c1 [Example 7, N-{(3S)-1-[1-(6-Fluoropyridin-3-yl)-1H-indazol-4-yl]pyrrolidin-3-yl}-2,4,6-trimethylbenzenesulfonamide]	38
Cc1nn(C2CCCC2)c(C)c1S(=O)(=O)N[C@H]1CCN(c2cccc3c2cnn3-c2ccc(F)cc2)C1 [Example 9, 1-Cyclopentyl-N-{(3S)-1-[1-(4-fluorophenyl)-1H-indazol-4-yl]pyrrolidin-3-Yl}-3,5-dimethyl-1H-pyrazole-4-sulfonamide]	120
